Values quoted from earlier work in patent US10543184B2, “Method to treat functional somatic syndromes with combination of aciclovir and celecoxib” (INNOVATIVE MED CONCEPTS, LLC, priority 2012, dated 2020).

Tested on: fibromyalgia patients
Details: Kendall et al., J. Rheumatology (2004) 31, 783-784

For CC(C)[C@H](N)C(=O)OCCOCn1cnc2c(=O)[nH]c(N)nc21 [valacyclovir], the “Outcome of treating fibromyalgia patients” value is given as “not successful”.
